Results from ChEMBL document CHEMBL5346968, “Exploring Structural Determinants of Bias among D4 Subtype-Selective Dopamine Receptor Agonists” (J Med Chem, 2023).

What was measured:
[1] = target: T1, D(4) dopamine receptor (Homo sapiens, UniProt P21917); assay: Agonist activity at human dopamine D4 receptor transfected in HEK293T cells co-transfected with Galpha-qi assessed as activation of GPCR-mediated receptor signaling incubated for 90 mins by IP-one HTRF assay; type: functional, cell-based
T1 sequence (P21917 whole entry): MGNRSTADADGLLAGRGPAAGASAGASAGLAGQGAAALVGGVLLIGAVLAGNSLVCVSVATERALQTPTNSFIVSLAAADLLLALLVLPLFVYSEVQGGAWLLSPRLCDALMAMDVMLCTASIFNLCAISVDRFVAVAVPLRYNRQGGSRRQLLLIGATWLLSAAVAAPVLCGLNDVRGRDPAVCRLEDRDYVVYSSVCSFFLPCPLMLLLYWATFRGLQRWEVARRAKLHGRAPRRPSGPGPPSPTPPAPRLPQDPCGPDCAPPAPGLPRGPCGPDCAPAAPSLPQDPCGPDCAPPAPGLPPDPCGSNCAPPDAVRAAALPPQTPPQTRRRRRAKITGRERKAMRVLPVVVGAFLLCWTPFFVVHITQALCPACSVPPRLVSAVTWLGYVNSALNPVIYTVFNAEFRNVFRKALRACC

[2] = target: T1, D(4) dopamine receptor; assay: Agonist activity at PKA-tagged human dopamine D4 receptor transfected in HEK293T cells expressing (EA)-beta-arrestin assessed as beta-arrestin recruitment incubated for 3 hrs by chemiluminescence based PathHunter assay; type: functional, cell-based
[3] = target: T1, D(4) dopamine receptor; assay: Agonist activity at PKA-tagged human dopamine D4 receptor transfected in HEK293T cells expressing (EA)-beta-arrestin and GRK2 assessed as beta-arrestin recruitment incubated for 3 hrs by chemiluminescence based PathHunter assay; type: functional, cell-based
[4] = target: T2, D(2) dopamine receptor (Homo sapiens, UniProt P14416); assay: Displacement of [3H]-N-methylspiperone from human dopmaine D2L receptor expressed in CHO cell membrane assessed as inhibition constant by competition binding assay; type: cell membranes
[5] = target: T2, D(2) dopamine receptor; assay: Displacement of [3H]-N-methylspiperone from human dopmaine D2S receptor expressed in CHO cell membrane assessed as inhibition constant by competition binding assay; type: cell membranes
[6] = target: D(3) dopamine receptor (Homo sapiens, UniProt P35462); assay: Displacement of [3H]-N-methylspiperone from human dopmaine D3 receptor expressed in HEK293T cells assessed as inhibition constant by competition binding assay; type: cell-based
[7] = target: T1, D(4) dopamine receptor; assay: Displacement of [3H]-N-methylspiperone from human dopmaine D4.4 receptor expressed in HEK293T cells assessed as inhibition constant by competition binding assay; type: cell-based
[8] = target: D(1A) dopamine receptor (Homo sapiens, UniProt P21728); assay: Displacement of [3H]SCH23390 from human dopamine D1 receptor expressed in HEK293T cells assessed as inhibition constant by competition binding assay; type: cell-based
[9] = target: D(1B) dopamine receptor (Homo sapiens, UniProt P21918); assay: Displacement of [3H]SCH23390 from human dopamine D5 receptor expressed in HEK293T cells assessed as inhibition constant by competition binding assay; type: cell-based
[10] = target: T3, Alpha-1A adrenergic receptor (Homo sapiens, UniProt P35348); assay: Displacement of [3H]prazosin from adrenergic alpha 1A receptor (unknown origin) expressed in HEK293T cells assessed as inhibition constant by competition binding assay; type: cell-based
T3 sequence (P35348 whole entry): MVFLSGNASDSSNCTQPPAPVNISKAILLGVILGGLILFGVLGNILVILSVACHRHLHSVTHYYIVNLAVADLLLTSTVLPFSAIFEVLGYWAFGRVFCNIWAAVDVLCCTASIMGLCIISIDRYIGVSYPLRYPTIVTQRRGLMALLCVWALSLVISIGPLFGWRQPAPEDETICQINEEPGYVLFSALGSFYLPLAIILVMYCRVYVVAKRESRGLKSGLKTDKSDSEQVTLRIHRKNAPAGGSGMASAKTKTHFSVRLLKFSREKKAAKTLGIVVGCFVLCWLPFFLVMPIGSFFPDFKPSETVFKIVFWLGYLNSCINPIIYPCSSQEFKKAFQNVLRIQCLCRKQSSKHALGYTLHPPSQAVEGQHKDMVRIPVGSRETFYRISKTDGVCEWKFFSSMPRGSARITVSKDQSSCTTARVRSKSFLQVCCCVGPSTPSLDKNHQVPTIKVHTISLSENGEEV

[11] = target: T4, Alpha-2A adrenergic receptor (Homo sapiens, UniProt P08913); assay: Displacement of [3H]RX821002 from adrenergic alpha 2A receptor (unknown origin) expressed in HEK293T cells assessed as inhibition constant by competition binding assay; type: cell-based
T4 sequence (P08913 whole entry): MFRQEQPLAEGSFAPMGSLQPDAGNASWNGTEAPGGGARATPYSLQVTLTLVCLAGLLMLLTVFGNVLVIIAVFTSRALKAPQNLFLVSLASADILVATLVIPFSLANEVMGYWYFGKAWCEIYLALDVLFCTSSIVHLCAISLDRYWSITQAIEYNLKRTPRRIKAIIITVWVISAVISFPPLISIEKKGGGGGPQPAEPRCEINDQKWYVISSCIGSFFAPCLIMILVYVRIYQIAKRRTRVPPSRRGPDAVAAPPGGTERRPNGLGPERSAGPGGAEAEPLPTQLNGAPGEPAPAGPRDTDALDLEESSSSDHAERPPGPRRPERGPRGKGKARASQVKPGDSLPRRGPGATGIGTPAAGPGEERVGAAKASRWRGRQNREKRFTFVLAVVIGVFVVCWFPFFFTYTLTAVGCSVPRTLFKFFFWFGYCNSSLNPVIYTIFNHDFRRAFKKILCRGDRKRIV

[12] = target: T5, 5-hydroxytryptamine receptor 1A (Homo sapiens, UniProt P08908); assay: Displacement of [3H][…] from 5-HT1A receptor (unknown origin) expressed in HEK293T cells assessed as inhibition constant by competition binding assay; type: cell-based
T5 sequence (P08908 whole entry): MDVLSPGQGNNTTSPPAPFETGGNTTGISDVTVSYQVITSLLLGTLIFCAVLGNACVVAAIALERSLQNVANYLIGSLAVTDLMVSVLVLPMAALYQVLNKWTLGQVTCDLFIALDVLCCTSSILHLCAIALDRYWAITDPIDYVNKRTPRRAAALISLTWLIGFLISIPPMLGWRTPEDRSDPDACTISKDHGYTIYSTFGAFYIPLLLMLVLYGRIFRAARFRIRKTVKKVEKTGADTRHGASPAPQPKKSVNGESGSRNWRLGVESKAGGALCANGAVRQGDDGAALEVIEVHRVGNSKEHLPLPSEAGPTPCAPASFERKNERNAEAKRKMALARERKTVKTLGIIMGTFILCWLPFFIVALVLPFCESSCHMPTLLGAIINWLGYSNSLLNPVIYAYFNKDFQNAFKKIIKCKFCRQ

[13] = target: 5-hydroxytryptamine receptor 2A (Homo sapiens, UniProt P28223); assay: Displacement of [3H]ketanserin from 5-HT2A receptor (unknown origin) expressed in HEK293T cells assessed as inhibition constant by competition binding assay; type: cell-based
[14] = Drug metabolism in pooled rat liver microsomes assessed as O-demethylation mediated metabolite formation at 40 uM measured upto 60 mins in the presence of NADPH by HPLC(UV) analysis; type: ADME, Microsome; conditions: 1 h
[15] = Drug metabolism in pooled rat liver microsomes assessed as hydroxylation mediated metabolite formation at 40 uM measured upto 60 mins in the presence of NADPH by HPLC(UV) analysis; type: ADME, Microsome; conditions: 1 h
[16] = Metabolic stability in pooled rat liver microsomes assessed as parent compound remaining at 40 uM measured after 60 mins in the presence of NADPH by HPLC(UV) analysis; type: ADME, Microsome; conditions: read-out: Stability
[17] = Permeability of the compound across basal to apical membrane in human Caco-2 cells at 10 uM incubated for 4 hrs by HPLC(UV) analysis; type: ADME, cell-based; conditions: caco-2, 4 h
[18] = Permeability of the compound across basal to apical membrane in human Caco-2 cells at 10 uM incubated for 4 hrs in the presence of valspodar by HPLC(UV) analysis; type: ADME, cell-based; conditions: caco-2, 4 h
[19] = Retention time of the compound by HPLC(UV) method; type: physicochemical

D(1A) dopamine receptor, sequence (P21728 whole entry): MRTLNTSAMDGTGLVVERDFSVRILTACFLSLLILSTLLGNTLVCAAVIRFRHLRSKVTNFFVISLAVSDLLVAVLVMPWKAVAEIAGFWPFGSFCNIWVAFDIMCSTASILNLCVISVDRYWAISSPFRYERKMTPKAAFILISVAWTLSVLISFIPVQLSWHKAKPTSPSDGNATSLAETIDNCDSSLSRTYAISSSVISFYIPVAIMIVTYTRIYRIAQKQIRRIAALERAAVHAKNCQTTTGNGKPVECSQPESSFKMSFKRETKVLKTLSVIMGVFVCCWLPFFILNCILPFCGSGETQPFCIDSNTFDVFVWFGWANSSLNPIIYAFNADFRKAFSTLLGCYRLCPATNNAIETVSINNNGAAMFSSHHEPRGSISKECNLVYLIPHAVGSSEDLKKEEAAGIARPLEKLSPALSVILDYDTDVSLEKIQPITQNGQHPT
D(3) dopamine receptor, sequence (P35462 whole entry): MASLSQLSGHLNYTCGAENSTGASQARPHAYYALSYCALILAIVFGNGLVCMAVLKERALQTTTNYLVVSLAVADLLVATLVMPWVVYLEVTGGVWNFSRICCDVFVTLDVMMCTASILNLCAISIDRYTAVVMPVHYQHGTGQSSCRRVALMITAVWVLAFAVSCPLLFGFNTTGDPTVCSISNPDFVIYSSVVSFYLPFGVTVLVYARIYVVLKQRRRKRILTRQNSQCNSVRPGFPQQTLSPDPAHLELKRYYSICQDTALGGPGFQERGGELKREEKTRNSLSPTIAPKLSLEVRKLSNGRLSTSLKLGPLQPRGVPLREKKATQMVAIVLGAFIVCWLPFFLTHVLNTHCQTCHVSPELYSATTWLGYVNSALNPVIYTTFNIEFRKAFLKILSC
D(1B) dopamine receptor, sequence (P21918 whole entry): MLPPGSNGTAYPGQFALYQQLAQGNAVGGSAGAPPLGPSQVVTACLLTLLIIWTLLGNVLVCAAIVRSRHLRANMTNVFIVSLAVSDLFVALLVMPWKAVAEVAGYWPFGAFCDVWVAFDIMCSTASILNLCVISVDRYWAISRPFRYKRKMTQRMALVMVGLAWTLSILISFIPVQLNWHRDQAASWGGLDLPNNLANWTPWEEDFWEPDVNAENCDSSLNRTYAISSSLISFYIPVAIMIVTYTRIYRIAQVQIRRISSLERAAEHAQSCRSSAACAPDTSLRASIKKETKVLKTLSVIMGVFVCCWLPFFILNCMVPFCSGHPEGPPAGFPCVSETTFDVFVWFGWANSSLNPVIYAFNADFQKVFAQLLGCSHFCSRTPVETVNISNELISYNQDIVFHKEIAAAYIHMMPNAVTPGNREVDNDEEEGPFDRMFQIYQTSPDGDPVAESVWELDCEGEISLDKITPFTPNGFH
5-hydroxytryptamine receptor 2A, sequence (P28223 whole entry): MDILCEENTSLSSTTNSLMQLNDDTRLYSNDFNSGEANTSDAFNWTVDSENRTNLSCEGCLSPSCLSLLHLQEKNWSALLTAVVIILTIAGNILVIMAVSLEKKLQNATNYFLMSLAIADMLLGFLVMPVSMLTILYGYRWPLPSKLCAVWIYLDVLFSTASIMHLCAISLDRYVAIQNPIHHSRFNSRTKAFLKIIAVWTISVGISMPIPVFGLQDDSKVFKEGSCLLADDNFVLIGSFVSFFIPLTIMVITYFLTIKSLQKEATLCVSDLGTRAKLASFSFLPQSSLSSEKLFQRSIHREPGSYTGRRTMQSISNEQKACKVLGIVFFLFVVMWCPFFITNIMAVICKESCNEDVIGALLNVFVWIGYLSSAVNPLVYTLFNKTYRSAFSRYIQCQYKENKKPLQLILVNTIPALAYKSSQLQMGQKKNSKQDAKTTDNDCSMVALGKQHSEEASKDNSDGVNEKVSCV
T2 sequence (P14416 whole entry): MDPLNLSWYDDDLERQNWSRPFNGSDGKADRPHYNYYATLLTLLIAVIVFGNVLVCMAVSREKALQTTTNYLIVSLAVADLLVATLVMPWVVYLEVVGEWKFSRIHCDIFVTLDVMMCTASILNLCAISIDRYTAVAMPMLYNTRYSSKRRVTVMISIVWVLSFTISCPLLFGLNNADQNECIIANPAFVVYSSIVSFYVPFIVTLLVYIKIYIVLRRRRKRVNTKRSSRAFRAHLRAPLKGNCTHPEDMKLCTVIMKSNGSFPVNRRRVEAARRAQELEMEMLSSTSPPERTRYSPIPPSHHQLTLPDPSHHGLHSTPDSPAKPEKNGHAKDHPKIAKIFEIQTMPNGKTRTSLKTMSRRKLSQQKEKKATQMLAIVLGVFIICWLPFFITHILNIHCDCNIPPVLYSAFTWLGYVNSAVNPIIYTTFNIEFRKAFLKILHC

Row | Compound | Ki [4] | Ki [5] | Ki [6] | Ki [7] | also measured
1 | COc1ccccc1N1CCN(CCCNC(=O)NN(Cc2ccc(F)cc2)c2ccccc2)CC1 | – | – | – | – | EC50 [1]: 0.0018 µM; EC50 [2]: 0.35 µM; EC50 [3]: 0.042 µM
2 | COc1ccccc1N1CCN(CCCNC(=O)NN(Cc2ccccc2)c2ccc(F)cc2)CC1 | – | – | – | – | EC50 [1]: 0.041 µM; EC50 [2]: 0.47 µM; EC50 [3]: 0.41 µM
3 | COc1ccccc1N1CCN(CCCNC(=O)Nc2ccc(F)cc2-c2ccccc2)CC1 | 0.14 µM | 0.031 µM | 0.029 µM | – | –
4 | COc1ccccc1N1CCN(CCCNC(=O)NCc2ccccc2-c2ccc(C(C)C)cc2)CC1 | 0.4 µM | 0.17 µM | 0.19 µM | 0.036 µM | –
5 | C#CCOc1ccc(NC(=O)NCCCN2CCN(c3ccccc3OC)CC2)c(-c2ccccc2)c1 | 0.086 µM | 0.046 µM | 0.039 µM | 0.0035 µM | –
6 | COc1ccccc1N1CCN(CCCNC(=O)Nc2ccccc2-c2ccccc2)CC1 | 0.21 µM | 0.1 µM | 0.057 µM | – | Ki [8]: 0.73 µM; Ki [9]: 4.5 µM; Ki [10]: 0.0071 µM; Ki [11]: 0.028 µM; Ki [12]: 0.025 µM; Ki [13]: 0.96 µM; Drug metabolism [14]: Metabolite_Detected; Drug metabolism [15]: Metabolite_Detected; remaining at 1 h, 40 µM [16]: 57%; permeability [17]: 22.2%; permeability [18]: 18.3%; Retention_time [19]: 3.91 min
7 | COc1ccc(-c2ccccc2)c(CNC(=O)NCCCN2CCN(c3ccccc3OC)CC2)c1 | 0.13 µM | 0.078 µM | 0.12 µM | – | Ki [8]: 0.28 µM; Ki [9]: 3 µM; Ki [10]: 0.0089 µM; Ki [11]: 0.2 µM; Ki [12]: 0.027 µM; Ki [13]: 0.12 µM
8 | COc1ccccc1N1CCN(CCCNC(=O)NCc2ccccc2-c2ccc(-c3ccccc3)cc2)CC1 | 0.46 µM | 0.29 µM | 0.37 µM | 0.015 µM | –
9 | COc1ccc(NC(=O)NCCCN2CCN(c3ccccc3OC)CC2)cc1-c1ccc(F)cc1 | 0.089 µM | 0.053 µM | 0.066 µM | 0.0058 µM | –
10 | COc1ccccc1N1CCN(CCCNC(=O)Nc2ccccc2-c2ccc(C(C)C)cc2)CC1 | 0.15 µM | 0.09 µM | 0.034 µM | – | –
11 | COc1cccc(-c2ccccc2NC(=O)NCCCN2CCN(c3ccccc3OC)CC2)c1 | 0.12 µM | 0.11 µM | 0.024 µM | 0.01 µM | –
12 | COc1ccccc1N1CCN(CCCNC(=O)Nc2ccc(-c3ccccc3)cc2)CC1 | 0.34 µM | 0.13 µM | 0.022 µM | 0.11 µM | –
13 | COc1ccccc1N1CCN(CCCNC(=O)Nc2ccccc2-c2ccc(C(C)(C)C)cc2)CC1 | 0.12 µM | 0.078 µM | 0.07 µM | 0.03 µM | –
14 | COCCOCCOc1ccc(NC(=O)NCCCN2CCN(c3ccccc3OC)CC2)c(-c2ccccc2)c1 | 0.13 µM | 0.074 µM | 0.086 µM | – | Ki [8]: 0.022 µM; Ki [9]: 3.9 µM; Ki [10]: 0.038 µM; Ki [11]: 0.41 µM; Ki [12]: 0.22 µM; Ki [13]: 1.5 µM
15 | COc1ccccc1N1CCN(CCCNC(=O)NCc2ccccc2-c2ccc(C)cc2)CC1 | 0.11 µM | 0.062 µM | 0.089 µM | 0.0042 µM | –
16 | COc1ccccc1N1CCN(CCCNC(=O)Nc2cccc(-c3ccccc3)c2)CC1 | 0.046 µM | 0.018 µM | 0.026 µM | 0.0072 µM | –
17 | COc1ccccc1N1CCN(CCCNC(=O)Nc2ccccc2-c2cccc(F)c2)CC1 | 0.17 µM | 0.11 µM | 0.023 µM | 0.004 µM | –

More lines, main results first:

Row | Ki [4] | Ki [5] | Ki [6] | Ki [7] | Compound | also measured
18 | 0.21 µM | 0.075 µM | 0.099 µM | 0.0053 µM | COc1ccccc1N1CCN(CCCNC(=O)NCc2ccccc2-c2ccc(F)cc2)CC1 | –
19 | 0.086 µM | 0.067 µM | 0.21 µM | 0.0031 µM | COc1ccccc1N1CCN(CCCNC(=O)NCc2ccccc2-c2cccc(F)c2)CC1 | –
20 | – | – | 0.062 µM | 0.0011 µM | COc1ccccc1N1CCN(CCCNC(=O)NCc2cccc(F)c2-c2ccccc2)CC1 | –
21 | 0.22 µM | 0.088 µM | 0.075 µM | 0.013 µM | COc1cccc(-c2ccccc2CNC(=O)NCCCN2CCN(c3ccccc3OC)CC2)c1 | –
22 | 0.21 µM | 0.14 µM | 0.073 µM | – | COc1ccccc1N1CCN(CCCNC(=O)NCc2c(F)cccc2-c2ccccc2)CC1 | –
23 | 0.19 µM | 0.12 µM | 0.27 µM | – | COc1ccccc1N1CCN(CCCNC(=O)NCc2ccccc2-c2ccccc2)CC1 | Ki [8]: 0.48 µM; Ki [9]: 3.3 µM; Ki [10]: 0.011 µM; Ki [11]: 0.12 µM; Ki [12]: 0.062 µM; Ki [13]: 0.14 µM; Drug metabolism [14]: Metabolite_Detected; Drug metabolism [15]: Metabolite_Detected; remaining at 1 h, 40 µM [16]: 56%; permeability [17]: 15.7%; permeability [18]: 10.5%; Retention_time [19]: 4.09 min
24 | 0.088 µM | 0.038 µM | 0.15 µM | 0.0046 µM | COc1ccccc1N1CCN(CCCNC(=O)NCc2cc(F)ccc2-c2ccccc2)CC1 | –
25 | 0.073 µM | 0.04 µM | 0.099 µM | 0.0027 µM | COc1ccccc1N1CCN(CCCNC(=O)NCc2ccc(F)cc2-c2ccccc2)CC1 | –
26 | 0.16 µM | 0.037 µM | 0.092 µM | 0.0031 µM | COc1ccc(CNC(=O)NCCCN2CCN(c3ccccc3OC)CC2)c(-c2ccccc2)c1 | –
